Measured values: ChEMBL document CHEMBL3745676, “Alkylamino derivatives of N-benzylpyrazine-2-carboxamide: synthesis and antimycobacterial evaluation” (Medchemcomm, 2015)
≈ marks a conversion by molar mass, not a printed value.

Tests used:
[1] = Cytotoxicity against HEL cells assessed as cell viability after 4 to 6 days by microscopic analysis; type: cell-based; conditions: human
Mycobacterium kansasii = experiment: Antimycobacterial activity against Mycobacterium kansasii CNCTC My 235/80 incubated for 5 to 7 days by microplate alamar blue assay; type: functional
Influenza A virus [2] = experiment: Antiviral activity against Influenza A virus (A/Puerto Rico/8/(H1N1)) assessed as inhibition of virus-induced cytopathic effect after 3 to 6 days by formazan-based MTS assay; type: functional, organism-based
[3] = Cytotoxicity against MDCK cells assessed as cell viability after 4 to 6 days by microscopic analysis; type: cell-based, Canis lupus familiaris; conditions: dog
Mycobacterium avium [4] = experiment: Antimycobacterial activity against Mycobacterium avium CNCTC My 152/73 after 5 days by microplate alamar blue assay; type: functional; conditions: CNCTC My 152/73, 120 h
Pichia kudriavzevii = experiment: Antifungal activity against Candida krusei E28 after 24 to 48 hrs by broth microdilution method; type: functional
Aspergillus fumigatus = experiment: Antifungal activity against Aspergillus fumigatus 231 after 24 to 48 hrs by broth microdilution method; type: functional
[5] = Cytotoxicity against MDCK cells assessed as cell viability after 4 to 6 days by formazan-based MTS assay; parameters: species or system Canis lupus familiaris; conditions: dog
Candida albicans = experiment: Antifungal activity against Candida albicans ATCC 44859 after 24 to 48 hrs by broth microdilution method; type: functional
Klebsiella pneumoniae [6] = experiment: Antibacterial activity against ESBL positive Klebsiella pneumoniae J 14368/08 after 24 to 48 hrs by broth microdilution method; type: functional
[7] = Lipophilicity, logK of the compound by RP-HPLC analysis; type: physicochemical
Trichosporon asahii = experiment: Antifungal activity against Trichosporon asahii 1188 after 24 to 48 hrs by broth microdilution method; type: functional
Klebsiella pneumoniae [8] = experiment: Antibacterial activity against Klebsiella pneumoniae D 11750/08 after 24 to 48 hrs by broth microdilution method; type: functional
[9] = Cytotoxicity against CRFK cells assessed as cell viability after 4 to 6 days by formazan-based MTS assay; parameters: species or system Felis catus; conditions: cat
[10] = system: Trichophyton mentagrophytes; experiment: Antifungal activity against Trichophyton mentagrophytes 445 after 72 to 120 hrs by broth microdilution method; type: functional
[11] = Cytotoxicity against human HeLa cells assessed as cell viability after 4 to 6 days by microscopic analysis; type: cell-based
[12] = system: Mycobacterium tuberculosis; experiment: Antimycobacterial activity against Mycobacterium tuberculosis H37Rv CNCTC My 331/88 incubated for 10 to 14 days by microplate alamar blue assay; type: functional
[13] = Cytotoxicity against African green monkey Vero cells assessed as cell viability after 4 to 6 days by microscopic analysis; type: cell-based; conditions: chlorocebus sabaeus
Escherichia coli = experiment: Antibacterial activity against Escherichia coli CCM 4517 after 24 to 48 hrs by broth microdilution method; type: functional
Pseudomonas aeruginosa = experiment: Antibacterial activity against Pseudomonas aeruginosa CCM 1961 after 24 to 48 hrs by broth microdilution method; type: functional
Mycobacterium avium [14] = experiment: Antimycobacterial activity against Mycobacterium avium CNCTC My 80/72 after 5 days by microplate alamar blue assay; type: functional; conditions: CNCTC My 80/72, 120 h
Candida tropicalis = experiment: Antifungal activity against Candida tropicalis 156 after 24 to 48 hrs by broth microdilution method; type: functional
Lichtheimia corymbifera = experiment: Antifungal activity against Lichtheimia corymbifera 272 after 24 to 48 hrs by broth microdilution method; type: functional
Influenza A virus [15] = experiment: Antiviral activity against Influenza A virus (A/Puerto Rico/8/(H1N1)) assessed as inhibition of virus-induced cytopathic effect after 3 to 6 days by microscopic analysis; type: functional, organism-based
Nakaseomyces glabratus = experiment: Antifungal activity against Candida glabrata 20/I after 24 to 48 hrs by broth microdilution method; type: functional

CCCCCCCNc1nccnc1C(=O)NCc1ccccc1
MCC [1]: 100 µM | MIC (Mycobacterium kansasii): > 100 µg/mL | EC50 (Influenza A virus [2]): > 100 µM | MCC [3]: 100 µM | MIC (Mycobacterium avium [4]): > 100 µg/mL | MIC (Pichia kudriavzevii): > 500 µM | MIC (Aspergillus fumigatus): > 500 µM | CC50 [5]: > 100 µM | MIC (Candida albicans): > 500 µM | MIC95 (Klebsiella pneumoniae [6]): > 500 µM | log K [7]: 1.809 | MIC (Trichosporon asahii): > 500 µM | MIC95 (Klebsiella pneumoniae [8]): > 500 µM | CC50 [9]: > 100 µM | MIC [10]: > 500 µM | MCC [11]: > 100 µM | MIC [12]: > 100 µg/mL | MCC [13]: > 100 µM | MIC95 (Escherichia coli): > 500 µM | MIC95 (Pseudomonas aeruginosa): > 500 µM | MIC (Mycobacterium avium [14]): > 100 µg/mL | MIC (Candida tropicalis): > 500 µM | MIC (Lichtheimia corymbifera): > 500 µM | EC50 (Influenza A virus [15]): > 100 µM | MIC (Nakaseomyces glabratus): > 500 µM

O=C(NCc1ccccc1)c1nccnc1NCc1ccccc1
MCC [1]: > 100 µM | MIC (Mycobacterium kansasii): > 100 µg/mL | EC50 (Influenza A virus [2]): > 100 µM | MCC [3]: 20 µM | MIC (Mycobacterium avium [4]): > 100 µg/mL | CC50 [5]: > 100 µM | log K [7]: 1.04 | CC50 [9]: > 100 µM | MCC [11]: > 100 µM | MIC [12]: > 100 µg/mL | MCC [13]: > 100 µM | MIC (Mycobacterium avium [14]): > 100 µg/mL | EC50 (Influenza A virus [15]): > 100 µM

CCCCCNc1cnc(C(=O)NCc2ccccc2)cn1
MCC [1]: > 100 µM | MIC (Mycobacterium kansasii): > 100 µg/mL | EC50 (Influenza A virus [2]): 3.3 µM | MCC [3]: > 100 µM | MIC (Mycobacterium avium [4]): > 100 µg/mL | MIC (Pichia kudriavzevii): > 500 µM | MIC (Aspergillus fumigatus): > 500 µM | CC50 [5]: > 100 µM | MIC (Candida albicans): > 500 µM | MIC95 (Klebsiella pneumoniae [6]): > 500 µM | log K [7]: 0.638 | MIC (Trichosporon asahii): > 500 µM | MIC95 (Klebsiella pneumoniae [8]): > 500 µM | CC50 [9]: > 100 µM | MIC [10]: > 500 µM | MCC [11]: > 100 µM | MIC [12]: 21 µM | MCC [13]: > 100 µM | MIC95 (Escherichia coli): > 500 µM | MIC95 (Pseudomonas aeruginosa): > 500 µM | MIC (Mycobacterium avium [14]): > 100 µg/mL | MIC (Candida tropicalis): > 500 µM | MIC (Lichtheimia corymbifera): > 500 µM | EC50 (Influenza A virus [15]): 37 µM | MIC (Nakaseomyces glabratus): > 500 µM

CCCCCCNc1nccnc1C(=O)NCc1ccccc1
MCC [1]: 100 µM | MIC (Mycobacterium kansasii): > 100 µg/mL | EC50 (Influenza A virus [2]): > 100 µM | MCC [3]: 100 µM | MIC (Mycobacterium avium [4]): > 100 µg/mL | MIC (Pichia kudriavzevii): > 500 µM | MIC (Aspergillus fumigatus): > 500 µM | CC50 [5]: > 100 µM | MIC (Candida albicans): > 500 µM | MIC95 (Klebsiella pneumoniae [6]): > 500 µM | log K [7]: 1.564 | MIC (Trichosporon asahii): > 500 µM | MIC95 (Klebsiella pneumoniae [8]): > 500 µM | CC50 [9]: > 100 µM | MIC [10]: > 500 µM | MCC [11]: > 100 µM | MIC [12]: > 100 µg/mL | MCC [13]: > 100 µM | MIC95 (Escherichia coli): > 500 µM | MIC95 (Pseudomonas aeruginosa): > 500 µM | MIC (Mycobacterium avium [14]): > 100 µg/mL | MIC (Candida tropicalis): > 500 µM | MIC (Lichtheimia corymbifera): > 500 µM | EC50 (Influenza A virus [15]): > 100 µM | MIC (Nakaseomyces glabratus): > 500 µM

NC(=O)c1cnccn1 [PYRAZINAMIDE]
MIC (Mycobacterium kansasii): > 100 µg/mL | log K [7]: -0.687 | MIC [12]: 102 µM

CCCCCNc1nccnc1C(=O)NCc1ccccc1
MCC [1]: ≥ 100 µM | MIC (Mycobacterium kansasii): > 100 µg/mL | EC50 (Influenza A virus [2]): > 100 µM | MCC [3]: ≥ 20 µM | MIC (Mycobacterium avium [4]): > 100 µg/mL | MIC (Pichia kudriavzevii): > 500 µM | MIC (Aspergillus fumigatus): > 500 µM | CC50 [5]: > 100 µM | MIC (Candida albicans): > 500 µM | MIC95 (Klebsiella pneumoniae [6]): > 500 µM | log K [7]: 1.321 | MIC (Trichosporon asahii): > 500 µM | MIC95 (Klebsiella pneumoniae [8]): > 500 µM | CC50 [9]: > 100 µM | MIC [10]: > 500 µM | MCC [11]: > 100 µM | MIC [12]: > 100 µg/mL | MCC [13]: > 100 µM | MIC95 (Escherichia coli): > 500 µM | MIC95 (Pseudomonas aeruginosa): > 500 µM | MIC (Mycobacterium avium [14]): > 100 µg/mL | MIC (Candida tropicalis): > 500 µM | MIC (Lichtheimia corymbifera): > 500 µM | EC50 (Influenza A virus [15]): > 100 µM | MIC (Nakaseomyces glabratus): > 500 µM

CCCCCCCCNc1nccnc1C(=O)NCc1ccccc1
MCC [1]: > 100 µM | MIC (Mycobacterium kansasii): > 100 µg/mL | EC50 (Influenza A virus [2]): > 100 µM | MCC [3]: 100 µM | MIC (Mycobacterium avium [4]): > 100 µg/mL | MIC (Pichia kudriavzevii): > 500 µM | MIC (Aspergillus fumigatus): > 500 µM | CC50 [5]: > 100 µM | MIC (Candida albicans): > 500 µM | MIC95 (Klebsiella pneumoniae [6]): > 500 µM | log K [7]: 2.054 | MIC (Trichosporon asahii): > 500 µM | MIC95 (Klebsiella pneumoniae [8]): > 500 µM | CC50 [9]: > 100 µM | MIC [10]: > 500 µM | MCC [11]: > 100 µM | MIC [12]: > 100 µg/mL | MCC [13]: > 100 µM | MIC95 (Escherichia coli): > 500 µM | MIC95 (Pseudomonas aeruginosa): > 500 µM | MIC (Mycobacterium avium [14]): > 100 µg/mL | MIC (Candida tropicalis): > 500 µM | MIC (Lichtheimia corymbifera): > 500 µM | EC50 (Influenza A virus [15]): > 100 µM | MIC (Nakaseomyces glabratus): > 500 µM

O=C(NCc1ccccc1)c1cncc(NCc2ccccc2)n1
MIC (Mycobacterium kansasii): > 100 µg/mL | MIC (Mycobacterium avium [4]): > 100 µg/mL | log K [7]: 0.483 | MIC [12]: 157 µM | MIC (Mycobacterium avium [14]): > 100 µg/mL

O=C(NCc1ccccc1)c1nccnc1Cl
MIC (Mycobacterium kansasii): 100 µg/mL (≈ 404 µM) | MIC (Mycobacterium avium [4]): > 100 µg/mL | MIC [12]: 50 µM | MIC (Mycobacterium avium [14]): > 100 µg/mL

CCCCNc1nccnc1C(=O)NCc1ccccc1
MCC [1]: > 100 µM | MIC (Mycobacterium kansasii): > 100 µg/mL | EC50 (Influenza A virus [2]): > 100 µM | MCC [3]: > 100 µM | MIC (Mycobacterium avium [4]): > 100 µg/mL | MIC (Pichia kudriavzevii): > 500 µM | MIC (Aspergillus fumigatus): > 500 µM | CC50 [5]: > 100 µM | MIC (Candida albicans): > 500 µM | MIC95 (Klebsiella pneumoniae [6]): > 500 µM | log K [7]: 1.081 | MIC (Trichosporon asahii): > 500 µM | MIC95 (Klebsiella pneumoniae [8]): > 500 µM | CC50 [9]: > 100 µM | MIC [10]: > 500 µM | MCC [11]: > 100 µM | MIC [12]: > 100 µg/mL | MCC [13]: > 100 µM | MIC95 (Escherichia coli): > 500 µM | MIC95 (Pseudomonas aeruginosa): > 500 µM | MIC (Mycobacterium avium [14]): > 100 µg/mL | MIC (Candida tropicalis): > 500 µM | MIC (Lichtheimia corymbifera): > 500 µM | EC50 (Influenza A virus [15]): > 100 µM | MIC (Nakaseomyces glabratus): > 500 µM

CCCCNc1cnc(C(=O)NCc2ccccc2)cn1
MCC [1]: > 100 µM | MIC (Mycobacterium kansasii): > 100 µg/mL | EC50 (Influenza A virus [2]): > 100 µM | MCC [3]: 100 µM | MIC (Mycobacterium avium [4]): > 100 µg/mL | MIC (Pichia kudriavzevii): > 500 µM | MIC (Aspergillus fumigatus): > 500 µM | CC50 [5]: 57 µM | MIC (Candida albicans): > 500 µM | MIC95 (Klebsiella pneumoniae [6]): > 500 µM | log K [7]: 0.424 | MIC (Trichosporon asahii): > 500 µM | MIC95 (Klebsiella pneumoniae [8]): > 500 µM | CC50 [9]: > 100 µM | MIC [10]: > 500 µM | MCC [11]: > 100 µM | MIC [12]: 88 µM | MCC [13]: > 100 µM | MIC95 (Escherichia coli): > 500 µM | MIC95 (Pseudomonas aeruginosa): > 500 µM | MIC (Mycobacterium avium [14]): > 100 µg/mL | MIC (Candida tropicalis): > 500 µM | MIC (Lichtheimia corymbifera): > 500 µM | EC50 (Influenza A virus [15]): > 100 µM | MIC (Nakaseomyces glabratus): > 500 µM
